In patent publication US7829567B2, “Imino-indeno[1,2-c] quinoline derivatives, their preparation processes, and pharmaceutical compositions comprising the same” (Kaohsiung Medical University, priority 2007, dated 2010):
Structures can show the parent of a compound that is named as a salt. Where two headings read alike, the source gives them in different places.

Experiments:
Assay type in all cases: cell-based
[1] = system: hepatocellular carcinoma (SKHep1); experiment: In vitro anticancer assay (MTT), SKHep1; details: 48 hrs, mean ± spread, read-out: Anti-proliferative evaluation IC50, SKHep1
Method: (§1) The resultant tetrazolium salt was then dissolved by the addition of dimethyl sulfoxide. Color was measured spectrophotometrically in a microtiter plate reader at 570 nm and used as a relative measure of viable cell number. The number of viable cells after treatment was compared to solvent and untreated control cells and used to determine the percent of control growth as (Abtreated/Abcontrol)×100, where Ab represents the mean absorbance (n=3). […] D. Heo et al. […] (+)-camptothecin (CPT) and doxorubicin hydrochloride (Dox) were used for comparison with the compounds according to this invention.

[2] = system: human stomach adenocarcinoma (AGS); experiment: In vitro anticancer assay (MTT), AGS; details: AGS cells, 48 hrs, mean ± spread, read-out: Anti-proliferative evaluation IC50, AGS
Method: as §1

[3] = system: oral squamous cell carcinoma (SAS); experiment: In vitro anticancer assay (MTT), SAS; details: SAS cells, 48 hrs, mean ± spread, read-out: Anti-proliferative evaluation IC50, SAS
Method: as §1

[4] = system: human cervical epithelioid carcinoma (HeLa); experiment: In vitro anticancer assay (MTT), HeLa; details: HeLa cells, 48 hrs, mean ± spread, read-out: Anti-proliferative evaluation IC50, HeLa
Method: as §1

[5] = system: human renal clear cell carcinoma; experiment: In vitro anticancer assay (MTT), RCC 768-O; details: RCC 768-O cells, 48 hrs, mean ± spread, read-out: Anti-proliferative evaluation IC50, RCC 768-O
Method: as §1

[6] = system: esophageal carcinoma (CE81T); experiment: In vitro anticancer assay (MTT), CE81T; details: CE81T cells, 48 hrs, mean ± spread, read-out: Anti-proliferative evaluation IC50, CE81T
Method: as §1

[7] = Homo sapiens, SK-HEP1, SKHep1 cells

Row | Compound | IC50 ([1]; SKHep1 cells) [µM] | IC50 [2] [µM] | IC50 [3] [µM] | IC50 [4] [µM] | IC50 [5] [µM] | IC50 [6] [µM] | IC50 [1, 7] [µM] | IC50 ([2]; Homo sapiens) [µM] | IC50 ([4]; Homo sapiens) [µM] | IC50 ([5]; Homo sapiens) [µM]
1 | COc1ccc2c(c1)C(=O)c1c-2c(N2CCN(C(=O)CNCCO)CC2)nc2ccccc12 [Compound 5nn] | 6.6 ± 0.9 | 6.5 ± 0.6 | 11.3 ± 0.3 | 4.7 ± 2.3 | 6.7 ± 0.5 | 9.2 ± 0.8 |  |  |  | 
2 | COc1ccc2c(c1)C(=O)c1c-2c(N2CCN(C(=O)CNCCN(C)C)CC2)nc2ccccc12 [Compound 5oo] | 16 ± 3.8 | 14.1 ± 2.3 | 19.5 ± 3.2 | 8.2 ± 2.2 | 9.4 ± 0.6 | > 30 |  |  |  | 
3 | COc1ccc2c(c1)C(=O)c1c-2c(N2CCCNCC2)nc2ccccc12 [Compound 5z] | 6.2 ± 0.7 | 7.1 ± 1.1 | 10.2 ± 2.5 | 3 ± 1.3 | 10.2 ± 6.5 | 4.9 ± 1.3 |  |  |  | 
4 | COc1ccc2c(c1)C(=NOCc1ccccc1)c1c-2c(N2CCNCC2)nc2ccccc12 [Compound 6x] | 4.2 ± 1.8 | 6.1 ± 1.4 | 7.6 ± 0.6 | 6.1 ± 0.3 | 7 ± 0.4 | 3.4 ± 2.3 |  |  |  | 
5 | COc1ccc2c(c1)C(=O)c1c-2c(N2CCN(C(=O)CNCCNCCO)CC2)nc2ccccc12 [Compound 5rr] | 11.9 ± 2.5 | 3.5 ± 1.1 | 8.6 ± 0.9 | 6.6 ± 1.3 | 7.6 ± 0.1 | 6.6 ± 1.9 |  |  |  | 
6 | COc1ccc2c(c1)C(=O)c1c-2c(N2CCN(C(=O)CNCCNCCN)CC2)nc2ccccc12 [Compound 5qq] | > 30 | 15.5 ± 1.5 | > 30 | > 30 | > 30 | > 30 |  |  |  | 
7 | O=C1c2ccccc2-c2c(N3CCNCC3)nc3ccccc3c21 [Compound 5aa] | 1.7 ± 1.1 | 6.5 ± 2.6 | 10.7 ± 0.9 | 1.1 ± 0.6 | 7.7 ± 0.4 | 11.1 ± 8.5 |  |  |  | 
8 | COc1cc2c(cc1OC)-c1c(N3CCNCC3)nc3ccccc3c1C2=O [Compound 5dd, 8,9-Dimethoxy-6-(piperazin-1-yl)-11H-indeno[1,2-c]quinolin-11-one] |  |  | 11.7 ± 1.6 |  |  | 8.3 ± 0.3 | 6.6 ± 3.2 | 7.4 ± 2.1 | 7 ± 1.2 | 7.1 ± 0.6
9 | COc1ccc2c(c1)C(=O)c1c-2c(N2CCN(C(=O)CCN(C)C)CC2)nc2ccccc12 [Compound 5yy] | 16.6 ± 2 | 8.1 ± 1.1 | 17 ± 2.9 | 11.7 ± 1.7 | 11.5 ± 1.8 | > 30 |  |  |  | 
10 | COc1cccc2c1C(=O)c1c(O)c3c(c(O)c1C2=O)C[C@@](O)(C(=O)CO)C[C@@H]3O[C@H]1C[C@H](N)[C@H](O)[C@H](C)O1 [Dox, doxorubicin hydrochloride, reference compound] |  |  | 5.7 ± 0.3 |  |  | 0.3 ± 0.1 | < 0.1 | > 30 | 0.4 ± 0.1 | 2.2 ± 0.3
11 | COc1ccc2c(c1)C(=O)c1c-2c(N2CCN(C(=O)CCNCCNCCN)CC2)nc2ccccc12 [Compound 5ddd] | > 30 | 10.8 ± 0.2 | > 30 | > 30 | > 30 | > 30 |  |  |  | 
12 | CN(C)CCCNc1nc2ccccc2c2c1-c1ccccc1C2=O [Compound 5b] | 4.6 ± 1.5 | 9.8 ± 4 | 6.9 ± 0.5 | 4 ± 0.9 | 10 ± 0.8 | > 30 |  |  |  | 
13 | COc1ccc2c(c1)C(=NOCCCN(C)C)c1c-2c(N2CCNCC2)nc2ccccc12 [Compound 6s, 9-Methoxy-6-(piperazin-1-yl)-11H-indeno[1,2-c]quinolin-11-one O-3-(dimethylamino)propyl oxime] |  |  | 4.9 ± 0.6 |  |  | > 30 | 3 ± 2.8 | 6.8 ± 1.8 | 0.6 ± 0.3 | 4.9 ± 0.8
14 | CNCCC(=O)N1CCN(c2nc3ccccc3c3c2-c2ccc(OC)cc2C3=O)CC1 [Compound 5xx] | 9.1 ± 4.8 | 8.1 ± 1.1 | 6.9 ± 0.7 | 1.9 ± 0.8 | 6 ± 1.4 | 3.8 ± 0.6 |  |  |  | 
15 | CON=C1c2cc(OC)ccc2-c2c(N3CCN(C(=O)CCNCCN(C)C)CC3)nc3ccccc3c21 [Compound 6o] | 11.6 ± 7.3 | > 30 | 19.1 ± 2.2 | 11.5 ± 1.3 | > 30 | 4.8 ± 1.6 |  |  |  | 
